Laboratory results as given in patent publication US20050271606A1, “Composition for treating inflammation which contains zinc pyrrolidonecarboxylate” (priority 2004, published 2005).

Experiments:
Type in all cases: cell-based
AP-1 = assay: Action on AP-1 activation by ultraviolet ray (UVA) in human dermal fibroblasts, activated AP-1 in nucleoprotein (gel shift or ELISA assay); details: 50 μM, 18 h incubation, UVA 20 J/cm^2
Protocol: (§1) The fibroblasts were irradiated with ultraviolet rays (UVA: 20 J/cm^2) using Dermaray M-DMR-80 (manufactured by Toshiba Iryoyohin). After 4 to 5 hours, the fibroblasts were recovered and the nucleoprotein was extracted therefrom by a conventional method. The resulting nucleoprotein was subjected to a gel shift assay or an ELISA assay (TransAM Kit, ACTIVE MOTIF) to detect activated AP-1. When applying the gel shift assay, the radioactive value of the AP-1 band was measured using a bio-imaging analyzer BAS 2000 (manufactured by Fuji Photo Film).
The suppression rate of the test compound for AP-1 activation was calculated from the following formula. Suppression Rate for AP-1 Activation (%)={1−(A1−A3)/(A2−A3)}×100 A1: radioactive value of AP-1 band when a test compound was added A2: radioactive value of AP-1 band when no test compound was added A3: radioactive value of AP-1 band when no test compound was added and no irradiation with ultraviolet rays

AP-1 (c-Jun) = assay: AP-1 activation by ultraviolet ray in human dermal fibroblasts, ELISA assay (TransAM Kit), quantity of c-Jun; details: 18 h incubation, UVA 20 J/cm^2, ELISA
Protocol: as §1
(§2) An ELISA assay was performed in accordance with the manual of the kit used, and the activation of AP-1 was obtained by determination of the quantity of c-Jun or c-Fos.
(§3) The suppression rate of AP-1 (c-Jun or c-Fos) activation of a test compound was calculated from the following formula. Suppression Rate for AP-1 Activation (%)={1−{B1−B3)/(B2−B3)}×100 B1: 450 nm absorbance when a test compound was added (per nucleoprotein) B2: 450 nm absorbance when no test compound was added (per nucleoprotein) B3: 450 nm absorbance when no test compound was added and no ultraviolet ray was irradiated (per nucleoprotein)

AP-1 (c-Fos) = assay: AP-1 activation by ultraviolet ray in human dermal fibroblasts, ELISA assay (TransAM Kit), quantity of c-Fos; details: 18 h incubation, UVA 20 J/cm^2, ELISA
Protocol: as §1, §2, §3

Row | Molecule | Suppressing Rate (%) for AP-1 activation (AP-1) | Suppressing Rate (%) (c-Jun) (AP-1 (c-Jun); 10 μM) | Suppressing Rate (%) (c-Jun) (AP-1 (c-Jun); 100 μM) | Suppressing Rate (%) (c-FOS) (AP-1 (c-Fos); 10 μM) | Suppressing Rate (%) (c-FOS) (AP-1 (c-Fos); 100 μM)
1 | O=C1CCC(C(=O)[O-])N1.O=C1CCC(C(=O)[O-])N1.[Zn+2] (racemic) [Zinc DL-Pyrrolidonecarboxylate] | 38.8% | – | – | – | –
2 | O=C1CC[C@@H](C(=O)[O-])N1.O=C1CC[C@@H](C(=O)[O-])N1.[Zn+2] [Zinc L-Pyrrolidonecarboxylate] | – | 109.5% | 106.7% | 69.3% | 77.0%
3 | Zinc Laurate | 9.1% | – | – | – | –
4 | NCC(=O)[O-].NCC(=O)[O-].[Zn+2] [Zinc Salt of Glycine] | −72.8% | – | – | – | –
